# Assay results from patent publication US20240217946A1, “ANTIDEPRESSANT AND ANXIOLYTIC SUBSTITUTED CINNAMAMIDE COMPOUND” (TASLY PHARMACEUTICAL GROUP CO., LTD., priority 2021, published 2024).
# Where “and” joins values, the source holds several entries; their conditions need not be identical. Identical values can stand only once. Like-named read-outs stand apart in the source and are kept apart here.
# Experiments:
# [1] = Pharmacokinetics and absolute bioavailability in rats (LC-MS/MS); format: in vivo; settings: rat; for MRT inf: read-out: MRT0-∞
# Source text: A LC-MS/MS method for determination of compound I-5 and compound M2 in rat plasma was established through experiments to investigate the pharmacokinetic characteristics and absolute bioavailability of compounds in rats.
# 20 SPF-grade SD male rats (body weight 220±20 g), purchased from Beijing Vital River Laboratory Animal Technology Co., Ltd.
# • Chromatographic column: waters BEH C18 1.7 μm; 2.1×100 mm Column • Internal standard: D-I-5 (deuterated compound I-5, with the following structural formula)
# 20 SD rats were randomly divided into 4 groups, with 5 rats in each group. […]
# 50 μL plasma was taken, 50 μL D-I-5 (20 ng/mL dissolved in acetonitrile) was added, the mixture was whirled for 30 s, then 100 μL acetonitrile was added; the mixture was fully whirled for 2 min, and was centrifuged at 4° C. at 12000 r/min for 3 min, 50 μL supernatant was taken, 50 μL aqueous solution was added for dilution, followed by whirling for Imin, and 4 μL sample was injected.
# The mean plasma concentration-time curves of rats after oral intragastric administration and intravenous administration were respectively shown in FIGS. 8 and 9. Data were processed using DAS 3.0 pharmacokinetic software (Chinese Professional Committee of Mathematical Pharmacology, Shanghai, China), and statistical moment parameters of the non-compartmental model were calculated, Cmax and Tmax being measured values.
# [2] = tested on: 5-HT reuptake in rat brain synaptosomes; assay: 3H-5-HT reuptake by rat brain synaptosomes; format: biochemical; settings: 3H-5HT 10 nM, read-out: 5-HT inhibition rate % IC50
# Source text: At present, it is believed that absolute or relative deficiencies of the central monoamine neurotransmitters 5-hydroxytryptamine (5-HT), norepinephrine (NA) and dopamine (DA) are closely related to depression and anxiety.
# Synaptosomes were separated using methods in literature to prepare brain synaptosomes. SD rats were rapidly decapitated with a small animal decapitator. After decapitation, brains were taken out quickly and precooled in an ice-water mixture, and the pia mater and vascular tissue were removed. Brain tissue was taken out. 10 times volume (ml/g) of 10 mM Tris HCl buffer (containing 0.32 M sucrose, pH 7.4) was added, an ultrasonic cell pulverizer was used for homogenization (maintaining at a low temperature), and the brain tissue was homogenized and centrifuged for 10 min (4° C., 1,000 g). After balanced centrifugation (1500 g, 10 min) at 4° C., precipitate was discarded, then supernatant was taken, and centrifugation (20000 g) was performed again for 30 min. The supernatant was discarded and the precipitate, i.e. crude extract of synaptic corpuscles, was retained. […]
# The percentage inhibition of isotope ligand binding by each compound was calculated according to the following equation: […]
# [3] = male, SD, plasma, po, intragastric administration 12.5 mg/kg, n = 5
# [4] = male, SD, plasma, intravenous administration 2.5 mg/kg, n = 5
# [5] = male, Sprague-Dawley (SD), plasma, po, intragastric administration 12.5 mg/kg, n = 5
# [6] = male, Sprague-Dawley (SD), plasma, intravenous administration 2.5 mg/kg, n = 5
structure (smiles),measurement,setting,value
NC(=O)/C=C/c1cc2c(c(C(F)(F)F)c1)OCO2 [Compound M2],bioavailability,"[1]; male, SD, plasma, oral, absolute bioavailability, intragastric 12.5 mg/kg vs intravenous 2.5 mg/kg, read-out: F (bioavailability, %)",40.8%
same,AUC(0-t),[1]; [3],1080 ± 373 ng·h/mL
same,Tmax,[1]; [3],21 min
same,half-life,[1]; [3],61.8 ± 20.4 min
same,C0,[1]; [4],1640 ± 319 ng/mL
same,half-life,[1]; [4],14.4 ± 1.8 min
same,concentration at 0.08 h,"[1]; male, SD, plasma, iv, 2.5 mg/kg, single intravenous 2.5 mg/kg, 0.08 h, read-out: Plasma concentration, Mean",1210 ng/mL
same,concentration at 0.08 h,"[1]; male, SD, plasma, iv, 2.5 mg/kg, single intravenous 2.5 mg/kg, 0.08 h, read-out: Plasma concentration, individual rats",1090 ng/mL
same,concentration at 0.25 h,"[1]; male, SD, plasma, iv, 2.5 mg/kg, single intravenous 2.5 mg/kg, 0.25 h, read-out: Plasma concentration, Mean",639 ng/mL
same,concentration at 0.25 h,"[1]; male, SD, plasma, iv, 2.5 mg/kg, single intravenous 2.5 mg/kg, 0.25 h, read-out: Plasma concentration, individual rats",575 ng/mL
same,concentration at 0.5 h,"[1]; male, SD, plasma, iv, 2.5 mg/kg, single intravenous 2.5 mg/kg, 0.50 h",315 ng/mL
same,concentration at 1 h,"[1]; male, SD, plasma, iv, 2.5 mg/kg, single intravenous 2.5 mg/kg, 1 h, read-out: Plasma concentration, Mean",79 ng/mL
same,concentration at 2 h,"[1]; male, SD, plasma, iv, 2.5 mg/kg, single intravenous 2.5 mg/kg, 2 h",5.46 ng/mL
same,concentration at 3 h,"[1]; male, SD, plasma, iv, 2.5 mg/kg, single intravenous 2.5 mg/kg, 3 h",3.21 ng/mL
same,concentration at 0.08 h,"[1]; male, SD, plasma, oral, 12.5 mg/kg, single intragastric 12.5 mg/kg, 0.08 h, read-out: Plasma concentration, Mean",191 ng/mL
same,concentration at 0.25 h,"[1]; male, SD, plasma, oral, 12.5 mg/kg, single intragastric 12.5 mg/kg, 0.25 h, read-out: Plasma concentration, Mean",398 ng/mL
same,concentration at 0.5 h,"[1]; male, SD, plasma, oral, 12.5 mg/kg, single intragastric 12.5 mg/kg, 0.50 h",387 ng/mL
same,concentration at 1 h,"[1]; male, SD, plasma, oral, 12.5 mg/kg, single intragastric 12.5 mg/kg, 1 h, read-out: Plasma concentration, Mean",211 ng/mL
same,concentration at 1 h,"[1]; male, SD, plasma, oral, 12.5 mg/kg, single intragastric 12.5 mg/kg, 1 h, read-out: Plasma concentration, individual rats",145 ng/mL
same,concentration at 2 h,"[1]; male, SD, plasma, oral, 12.5 mg/kg, single intragastric 12.5 mg/kg, 2 h",132 ng/mL
same,concentration at 3 h,"[1]; male, SD, plasma, oral, 12.5 mg/kg, single intragastric 12.5 mg/kg, 3 h",134 ng/mL
same,concentration at 4 h,"[1]; male, SD, plasma, oral, 12.5 mg/kg, single intragastric 12.5 mg/kg, 4 h, read-out: Plasma concentration, Mean",164 ng/mL
same,concentration at 6 h,"[1]; male, SD, plasma, oral, 12.5 mg/kg, single intragastric 12.5 mg/kg, 6 h",86.7 ng/mL
same,concentration at 8 h,"[1]; male, SD, plasma, oral, 12.5 mg/kg, single intragastric 12.5 mg/kg, 8 h, read-out: Plasma concentration, Mean",2.07 ng/mL
same,concentration at 8 h,"[1]; male, SD, plasma, oral, 12.5 mg/kg, single intragastric 12.5 mg/kg, 8 h, read-out: Plasma concentration, individual rats",5.38 ng/mL
same,Cmax,"[1]; male, SD, plasma, po, 12.5 mg/kg, intragastric administration 12.5 mg/kg, n = 5, read-out: Cmax",425 ± 137 ng/mL
same,AUC(0-inf),[1]; [5],1120 ± 367 ng·h/mL
same,AUC(0-t),[1]; [5],1080 ± 373 ng·h/mL
same,MRT inf,[1]; [5],151 ± 36.6 min
same,AUC(0-inf),[1]; [6],532 ± 127 ng·h/mL
same,AUC(0-t),[1]; [6],529 ± 130 ng·h/mL
same,MRT inf,[1]; [6],18.6 ± 3.6 min
same,Cmax,"[1]; intragastric administration 12.5 mg/kg, n = 5, 12.5 mg/kg",425.47 ± 136.97 ng/mL
same,"Plasma concentration, individual rats","[1]; single intragastric 12.5 mg/kg, 0.08 h",78.15 ng/mL and 127.05 ng/mL and 78.40 ng/mL and 240.77 ng/mL and 433.00 ng/mL
same,"Plasma concentration, individual rats","[1]; single intragastric 12.5 mg/kg, 0.25 h",213.75 ng/mL and 487.46 ng/mL and 212.80 ng/mL and 494.43 ng/mL and 582.67 ng/mL
same,"Plasma concentration, individual rats","[1]; single intragastric 12.5 mg/kg, 0.50 h",270.87 ng/mL and 411.67 ng/mL and 291.90 ng/mL and 416.38 ng/mL and 542.56 ng/mL
same,"Plasma concentration, individual rats","[1]; single intragastric 12.5 mg/kg, 1 h",184.82 ng/mL and 165.92 ng/mL and 270.26 ng/mL and 288.12 ng/mL
same,"Plasma concentration, individual rats","[1]; single intragastric 12.5 mg/kg, 2 h",90.66 ng/mL and 71.40 ng/mL and 131.47 ng/mL and 231.27 ng/mL and 133.28 ng/mL
same,"Plasma concentration, individual rats","[1]; single intragastric 12.5 mg/kg, 3 h",175.71 ng/mL and 60.26 ng/mL and 194.74 ng/mL and 114.91 ng/mL and 122.55 ng/mL
same,"Plasma concentration, individual rats","[1]; single intragastric 12.5 mg/kg, 4 h",268.66 ng/mL and 107.99 ng/mL and 188.58 ng/mL and 66.64 ng/mL and 188.12 ng/mL
same,"Plasma concentration, individual rats","[1]; single intragastric 12.5 mg/kg, 6 h",57.55 ng/mL and 48.74 ng/mL and 11.84 ng/mL and 15.99 ng/mL and 299.46 ng/mL
same,"Plasma concentration, individual rats","[1]; single intragastric 12.5 mg/kg, 8 h",BLOQ (3×) and 3.64 ng/mL
same,"Plasma concentration, individual rats","[1]; single intravenous 2.5 mg/kg, 0.08 h, 2.5 mg/kg",1221.94 ng/mL and 1589.64 ng/mL and 991.98 ng/mL and 1170.61 ng/mL
same,"Plasma concentration, individual rats","[1]; single intravenous 2.5 mg/kg, 0.25 h, 2.5 mg/kg",742.62 ng/mL and 807.81 ng/mL and 497.57 ng/mL and 574.42 ng/mL
same,"Plasma concentration, individual rats","[1]; single intravenous 2.5 mg/kg, 0.50 h, 2.5 mg/kg",281.81 ng/mL and 435.1 ng/mL and 406.94 ng/mL and 201.98 ng/mL and 248.89 ng/mL
same,"Plasma concentration, individual rats","[1]; single intravenous 2.5 mg/kg, 1 h, 2.5 mg/kg",74.30 ng/mL and 130.96 ng/mL and 92.59 ng/mL and 39.74 ng/mL and 57.32 ng/mL
same,"Plasma concentration, individual rats","[1]; single intravenous 2.5 mg/kg, 2 h, 2.5 mg/kg",4.62 ng/mL and 12.27 ng/mL and 2.23 ng/mL and BLOQ and 2.72 ng/mL
same,"Plasma concentration, individual rats","[1]; single intravenous 2.5 mg/kg, 3 h, 2.5 mg/kg",2.035 ng/mL and 4.403 ng/mL and BLOQ (3×)
same,"Plasma concentration, individual rats","[1]; single intravenous 2.5 mg/kg, 4 h",BLOQ
same,"Plasma concentration, individual rats","[1]; single intravenous 2.5 mg/kg, 6 h",BLOQ
same,"Plasma concentration, individual rats","[1]; single intravenous 2.5 mg/kg, 8 h",BLOQ
same,IC50,[2],98.9 ± 2.42 nM
